In patent US10538520B2, “Benzamide and nicotinamide compounds and methods of using same” (OncoTartis Inc., priority 2013, dated 2020):

Legend:
MV4-11 = test: Cytotoxicity towards MV4-11 cell line; assay type: cell-based; details: Homo sapiens
Protocol: (§1) In various embodiments, the compounds of the disclosure are those in which show IC50 values in cytotoxicity experiments towards cells lines MV4-11 and U937 of >20 μM, 10-20 μM, 5-10 μM, 1-5 μM, or <1 μM.
(§2) The IC50 is divided into 5 categories: A<1 μM, B 1-5 μM, C 5-10 μM, D 10-20 μM, and E>20 μM.

U-937 = test: Cytotoxicity towards U-937 cell line; assay type: cell-based; details: Homo sapiens
Protocol: as §1, §2

Compound	IC50 (MV4-11) [µM]	IC50 (U-937) [µM]
O=C(NCc1cccnc1)c1ccc(-n2cccn2)c(C#Cc2ccccc2)c1 [TT-02684]	< 1	< 1
NC(=O)c1cccc(C#Cc2cc(C(=O)NCCCc3cn[nH]c3)ccc2-n2cccn2)c1 [TT-03625]	< 1	< 1
NCCOCCOCCOCCN1CCN(c2ccc(C(=O)NCCCn3ccnc3)cc2C#Cc2ccc(F)cc2)CC1 [TT-03725]	< 1	< 1
O=C(NCCCc1cn[nH]c1)c1ccc(-n2cccn2)c(C#Cc2cccc(Cl)c2)c1 [TT-03322]	< 1	< 1
O=C(Nc1ccc(Cn2ccnc2)cc1)c1ccc(-n2cccn2)c(C#Cc2ccccc2)c1 [TT-02690]	5 to 10	10 to 20
O=C(NCCCc1cn[nH]c1)c1ccc(N2CCC(C(F)(F)F)CC2)c(C#Cc2ccc(F)cc2)c1 [TT-03591]	< 1	< 1
C[C@@H]1CN(c2ncc(C(=O)NC/C=C/c3cn[nH]c3)cc2C#Cc2ccc(F)cc2)C[C@H](C)O1 [TT-03751]	< 1	< 1
O=C(NCc1ccco1)c1ccc(-n2cccn2)c(C#Cc2ccccn2)c1 [TT-02947]	> 20	< 1
O=C(NCCCc1ccccn1)c1ccc(-n2cccn2)c(C#Cc2ccccc2)c1 [TT-02935]	10 to 20	5 to 10
O=C(c1ccc(-n2cccn2)c(C#Cc2ccccc2)c1)N1CCCC(Cn2ccnc2)C1 (stereo not drawn) [TT-02796]	10 to 20	10 to 20
O=C(NCCN1C(=O)CSC1=O)c1ccc(-n2cccn2)c(C#Cc2cccnc2)c1 [TT-02938]	> 20	> 20
Cc1nn(-c2ccc(C(=O)NCCc3c[nH]cn3)cc2C#Cc2ccccc2)c(C)c1C [TT-02949]	10 to 20	5 to 10
COc1cccc(C#Cc2cc(C(=O)NCCCn3ccnc3)ccc2-n2cccn2)c1 [TT-03309]	< 1	< 1
O=C(NCCN1CCCC1=O)c1ccc(-n2cccn2)c(C#Cc2ccccc2)c1 [TT-02929]	> 20	> 20
Nc1cccc(C#Cc2cc(C(=O)NCCCc3cn[nH]c3)ccc2-n2cccn2)n1 [TT-03354]	< 1	< 1
O=C(NCCCc1cn[nH]c1)c1ccc(-c2cccnc2)c(C#Cc2ccccc2)c1 [TT-03245]	< 1	< 1
Cc1cccc(C#Cc2cc(C(=O)NCCCn3ccnc3)ccc2-n2cccn2)c1 [TT-03327]	< 1	< 1
O=C(NCCCc1cn[nH]c1)c1ccc(-c2ccncc2)c(C#Cc2ccc(F)cc2)c1 [TT-03582]	< 1	< 1
COc1ccccc1C#Cc1cc(C(=O)NCCCc2cn[nH]c2)ccc1-n1cccn1 [TT-03330]	< 1	< 1
O=C(NCCCn1ccnc1)c1ccc(N2CCOCC2)c(C#Cc2ccccc2)c1 [TT-03261]	< 1	< 1
CC(=O)N1CCN(c2ccc(C(=O)NCCCc3cn[nH]c3)cc2C#Cc2ccc(F)cc2)CC1 [TT-03599]	< 1	< 1
Cc1ccccc1C#Cc1cc(C(=O)NCCCc2cn[nH]c2)ccc1-n1cccn1 [TT-03326]	< 1	< 1
CC(C)(C)OC(=O)N1CCN(c2ccc(C(=O)NCCCc3cn[nH]c3)cc2C#Cc2ccc(F)cc2)CC1 [TT-03596]	< 1	< 1
O=C(NCCCc1cn[nH]c1)c1cnc(N2CCOCC2)c(C#Cc2ccc(F)cc2)c1 [TT-03767]	< 1	
Cc1ccc(C#Cc2cc(C(=O)NCCCc3cn[nH]c3)ccc2-n2cccn2)cc1 [TT-03201]	< 1	< 1
O=C1CC2CCC(CN1)N2c1ncc(C(=O)NCCCc2cn[nH]c2)cc1C#Cc1ccc(F)cc1 (stereo not drawn) [TT-03765]	< 1	< 1

Compound	IC50 (MV4-11) [µM]	IC50 (U-937) [µM]
C[C@@H]1CN(c2ncc(C(=O)NCCCc3cn[nH]c3)cc2C#Cc2ccc(Cl)cc2)C[C@H](C)O1 [TT-03753]	< 1	< 1
O=C(NCCCc1cn[nH]c1)c1ccc(N2CCCC2)c(C#Cc2ccccc2)c1 [TT-03230]	< 1	< 1
COC1CCCN(c2ncc(C(=O)NCCCc3cn[nH]c3)cc2C#Cc2ccc(F)cc2)C1 (stereo not drawn) [TT-03762]	< 1	
O=C(NCCCn1ccnc1)c1ccc(-n2cccn2)c(C#Cc2ccccc2F)c1 [TT-03225]	< 1	< 1
O=C(NCCCn1ccnc1)c1ccc(-n2cccn2)c(C#Cc2ccccc2Cl)c1 [TT-02750]	< 1	< 1
O=C(NCCCc1cn[nH]c1)c1ccc(-n2cccn2)c(C#Cc2ccccc2C(F)(F)F)c1 [TT-03323]	< 1	< 1
O=C(NCCCn1ccnc1)c1ccc(-n2cccn2)c(C#Cc2ccc(Cl)cc2)c1 [TT-03221]	< 1	< 1
O=C(NCCCn1cccn1)c1ccc(-n2cccn2)c(C#Cc2ccccc2)c1 [TT-02709]	> 20	< 1
C[C@@H]1CN(c2ccc(C(=O)NCCCn3ccnc3)cc2C#Cc2ccc(F)cc2)C[C@H](C)O1 [TT-03727]	< 1	< 1
O=C(NCCCc1cn[nH]c1)c1ccc(-n2cccn2)c(C#Cc2ccccc2)c1 [TT-02715]	< 1	< 1
CC(C)(C)NC(=O)c1ccc(-n2cccn2)c(C#Cc2ccccn2)c1 [TT-02946]	> 20	5 to 10
O=C(NCCCc1cn[nH]c1)c1ccc(N2CCOC(CN3CCCCC3)C2)c(C#Cc2ccc(F)cc2)c1 (stereo not drawn) [TT-03669]	< 1	< 1
O=C(NCCCc1cn[nH]c1)c1ccc(-c2ccncc2)c(C#Cc2ccccc2)c1 [TT-03246]	< 1	< 1
Cn1ccnc1C(C)(O)CC1CCCN1C(=O)c1ccc(-n2cccn2)c(C#Cc2ccccc2)c1 (stereo not drawn) [TT-02793]	> 20	5 to 10
Cc1ccc(C(=O)NCCCc2cn[nH]c2)cc1C#Cc1ccccc1 [TT-03248]	< 1	< 1
O=C(NCCCc1cn[nH]c1)c1ccc(-n2cccn2)c(C#Cc2ccccn2)c1 [TT-03355]	< 1	< 1
O=C(NCCCc1cn[nH]c1)c1cnc(N2CCS(=O)(=O)CC2)c(C#Cc2ccc(F)cc2)c1 [TT-03783]	< 1	< 1
O=C(NCC(O)Cc1cn[nH]c1)c1cnc(N2CCOCC2)c(C#Cc2ccc(F)cc2)c1 (stereo not drawn) [TT-03774]	< 1	1 to 5
C[C@@H]1CN(c2ccc(C(=O)NCCCc3cn[nH]c3)cc2C#Cc2ccc(F)cc2)C[C@H](C)O1 [TT-03670]	< 1	< 1
COc1ccc(C#Cc2cc(C(=O)NCCCc3cn[nH]c3)ccc2N2CCOCC2)cn1 [TT-03720]	< 1	< 1
Cc1nccn1-c1ccc(C(=O)NCCCc2cn[nH]c2)cc1C#Cc1ccc(F)cc1 [TT-03602]	< 1	< 1
CC1CC(C)CN(c2ncc(C(=O)NCCCc3cn[nH]c3)cc2C#Cc2ccc(F)cc2)C1 (stereo not drawn) [TT-03761]	< 1	
CC1CN(c2ncc(C(=O)NCCCc3cn[nH]c3)cc2C#Cc2ccc(F)cc2)CCN1 (stereo not drawn) [TT-03756]	< 1	
CC1CN(c2ncc(C(=O)NCCCc3cn[nH]c3)cc2C#Cc2ccc(F)cc2)CCN1C(=O)OC(C)(C)C (stereo not drawn) [TT-03772]	< 1	
O=C1CN(c2ncc(C(=O)NCCCc3cn[nH]c3)cc2C#Cc2ccc(F)cc2)CCN1 [TT-03768]	< 1	
